# Test results as given in PubChem BioAssay (NCI).
#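 Briefly, cells in 96-well plates were exposed to five compound concentrations for 48 h, and endpoints were estimated by linear interpolation. GI50: concentration for 50% inhibition of growth. TGI: total growth inhibition.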
# Experiments:
# Test in all cases: NCI anticancer screen, dose series, 48 h
# 786-0 renal = system: 786-0 renal
# A498 renal = system: A498 renal
# A549 NSCLC = system: A549 NSCLC
# ACHN renal = system: ACHN renal
# BT-549 breast = system: BT-549 breast
# CAKI-1 renal = system: CAKI-1 renal
# CCRF-CEM leukemia = system: CCRF-CEM leukemia
# COLO 205 colon = system: COLO 205 colon
# DU-145 prostate = system: DU-145 prostate
# EKVX NSCLC = system: EKVX NSCLC
# HCC-2998 colon = system: HCC-2998 colon
# HCT-116 colon = system: HCT-116 colon
# HCT-15 colon = system: HCT-15 colon
# HL-60(TB) leukemia = system: HL-60(TB) leukemia
# HOP-62 NSCLC = system: HOP-62 NSCLC
# HOP-92 NSCLC = system: HOP-92 NSCLC
# HS 578T breast = system: HS 578T breast
# HT29 colon = system: HT29 colon
# IGROV1 ovarian = system: IGROV1 ovarian
# K-562 leukemia = system: K-562 leukemia
# KM12 colon = system: KM12 colon
# LOX IMVI melanoma = system: LOX IMVI melanoma
# M14 melanoma = system: M14 melanoma
# MALME-3M melanoma = system: MALME-3M melanoma
# MCF7 breast = system: MCF7 breast
# MDA-MB-435 = system: MDA-MB-435
# MDA-MB-468 breast = system: MDA-MB-468 breast
# MOLT-4 leukemia = system: MOLT-4 leukemia
# NCI-H226 lung = system: NCI-H226 lung
# NCI-H23 lung = system: NCI-H23 lung
# NCI-H460 lung = system: NCI-H460 lung
# NCI-H522 lung = system: NCI-H522 lung
# NCI/ADR-RES ovarian = system: NCI/ADR-RES ovarian
# OVCAR-3 ovarian = system: OVCAR-3 ovarian
# OVCAR-4 ovarian = system: OVCAR-4 ovarian
# OVCAR-5 ovarian = system: OVCAR-5 ovarian
# OVCAR-8 ovarian = system: OVCAR-8 ovarian
# PC-3 prostate = system: PC-3 prostate
# RPMI-8226 leukemia = system: RPMI-8226 leukemia
# RXF 393 renal = system: RXF 393 renal
# SF-268 CNS = system: SF-268 CNS
# SF-295 CNS = system: SF-295 CNS
# SF-539 CNS = system: SF-539 CNS
# SK-MEL-28 melanoma = system: SK-MEL-28 melanoma
# SK-MEL-5 melanoma = system: SK-MEL-5 melanoma
# SK-OV-3 ovarian = system: SK-OV-3 ovarian
# SN12C renal = system: SN12C renal
# SNB-19 CNS = system: SNB-19 CNS
# SR leukemia = system: SR leukemia
# SW-620 colon = system: SW-620 colon
# T-47D breast = system: T-47D breast
# TK-10 renal = system: TK-10 renal
# U251 CNS = system: U251 CNS
# UACC-257 melanoma = system: UACC-257 melanoma
# UACC-62 melanoma = system: UACC-62 melanoma
compound,measurement,setting,value
c1n[nH]cc1-c1nc2ccc3[nH]ncc3c2c2c1CC1(CC2)COC1,GI50,786-0 renal,13.4 µM
same,TGI,786-0 renal,32.7 µM
same,GI50,A498 renal,15 µM
same,TGI,A498 renal,30.9 µM
same,GI50,A549 NSCLC,27.8 µM
same,TGI,A549 NSCLC,> 100 µM
same,GI50,ACHN renal,16.8 µM
same,TGI,ACHN renal,> 100 µM
same,GI50,BT-549 breast,4.09 µM
same,TGI,BT-549 breast,16.6 µM
same,GI50,CAKI-1 renal,19.2 µM
same,TGI,CAKI-1 renal,86.5 µM
same,GI50,CCRF-CEM leukemia,29.9 µM
same,TGI,CCRF-CEM leukemia,> 100 µM
same,GI50,COLO 205 colon,6.13 µM
same,TGI,COLO 205 colon,21.2 µM
same,GI50,DU-145 prostate,26.2 µM
same,TGI,DU-145 prostate,95.5 µM
same,GI50,EKVX NSCLC,22.4 µM
same,TGI,EKVX NSCLC,83.6 µM
same,GI50,HCC-2998 colon,15.5 µM
same,TGI,HCC-2998 colon,40.6 µM
same,GI50,HCT-116 colon,6.02 µM
same,TGI,HCT-116 colon,37.7 µM
same,GI50,HCT-15 colon,23.2 µM
same,TGI,HCT-15 colon,> 100 µM
same,GI50,HL-60(TB) leukemia,13.6 µM
same,TGI,HL-60(TB) leukemia,39.3 µM
same,GI50,HOP-62 NSCLC,18.2 µM
same,TGI,HOP-62 NSCLC,47.3 µM
same,GI50,HOP-92 NSCLC,23.1 µM
same,TGI,HOP-92 NSCLC,63.1 µM
same,GI50,HS 578T breast,8.53 µM
same,TGI,HS 578T breast,39.3 µM
same,GI50,HT29 colon,26.3 µM
same,TGI,HT29 colon,> 100 µM
same,GI50,IGROV1 ovarian,19.3 µM
same,TGI,IGROV1 ovarian,57.3 µM
same,GI50,K-562 leukemia,13.7 µM
same,TGI,K-562 leukemia,> 100 µM
same,GI50,KM12 colon,22.3 µM
same,TGI,KM12 colon,51.8 µM
same,GI50,LOX IMVI melanoma,11.3 µM
same,TGI,LOX IMVI melanoma,24.6 µM
same,GI50,M14 melanoma,12.9 µM
same,TGI,M14 melanoma,28 µM
same,GI50,MALME-3M melanoma,15.7 µM
same,TGI,MALME-3M melanoma,30.1 µM
same,GI50,MCF7 breast,20.4 µM
same,TGI,MCF7 breast,69.5 µM
same,GI50,MDA-MB-435,14.4 µM
same,TGI,MDA-MB-435,32.4 µM
same,GI50,MDA-MB-468 breast,3.53 µM
same,TGI,MDA-MB-468 breast,13 µM
same,GI50,MOLT-4 leukemia,15.5 µM
same,TGI,MOLT-4 leukemia,48.2 µM
same,GI50,NCI-H226 lung,16 µM
same,TGI,NCI-H226 lung,37.1 µM
same,GI50,NCI-H23 lung,15.1 µM
same,TGI,NCI-H23 lung,32.7 µM
same,GI50,NCI-H460 lung,17.1 µM
same,TGI,NCI-H460 lung,35.9 µM
same,GI50,NCI-H522 lung,3.43 µM
same,TGI,NCI-H522 lung,17.1 µM
same,GI50,NCI/ADR-RES ovarian,> 100 µM
same,TGI,NCI/ADR-RES ovarian,> 100 µM
same,GI50,OVCAR-3 ovarian,13.7 µM
same,TGI,OVCAR-3 ovarian,59.2 µM
same,GI50,OVCAR-4 ovarian,25 µM
same,TGI,OVCAR-4 ovarian,70.4 µM
same,GI50,OVCAR-5 ovarian,25.6 µM
same,TGI,OVCAR-5 ovarian,77.7 µM
same,GI50,OVCAR-8 ovarian,16.3 µM
same,TGI,OVCAR-8 ovarian,35.5 µM
same,GI50,PC-3 prostate,26.5 µM
same,TGI,PC-3 prostate,> 100 µM
same,GI50,RPMI-8226 leukemia,21.3 µM
same,TGI,RPMI-8226 leukemia,68 µM
same,GI50,RXF 393 renal,4.52 µM
same,TGI,RXF 393 renal,17.6 µM
same,GI50,SF-268 CNS,16.2 µM
same,TGI,SF-268 CNS,40.2 µM
same,GI50,SF-295 CNS,23.4 µM
same,TGI,SF-295 CNS,58.4 µM
same,GI50,SF-539 CNS,12.2 µM
same,TGI,SF-539 CNS,25.5 µM
same,GI50,SK-MEL-28 melanoma,12.9 µM
same,TGI,SK-MEL-28 melanoma,27.7 µM
same,GI50,SK-MEL-5 melanoma,16.3 µM
same,TGI,SK-MEL-5 melanoma,30.1 µM
same,GI50,SK-OV-3 ovarian,5.9 µM
same,TGI,SK-OV-3 ovarian,34.3 µM
same,GI50,SN12C renal,13.9 µM
same,TGI,SN12C renal,38 µM
same,GI50,SNB-19 CNS,17.3 µM
same,TGI,SNB-19 CNS,68.1 µM
same,GI50,SR leukemia,3.36 µM
same,TGI,SR leukemia,16.9 µM
same,GI50,SW-620 colon,4.98 µM
same,TGI,SW-620 colon,52.6 µM
same,GI50,T-47D breast,12.7 µM
same,TGI,T-47D breast,57.3 µM
same,GI50,TK-10 renal,15 µM
same,TGI,TK-10 renal,67.6 µM
same,GI50,U251 CNS,17.7 µM
same,TGI,U251 CNS,> 100 µM
same,GI50,UACC-257 melanoma,17 µM
same,TGI,UACC-257 melanoma,39 µM
same,GI50,UACC-62 melanoma,5.76 µM
same,TGI,UACC-62 melanoma,18.7 µM
